From patent publication US10035819B2, “PPAR agonists and methods of use thereof” (The Salk Institute for Biological Studies, priority 2014, dated 2018)
≈ marks a conversion by molar mass, not a printed value.

Assays:
FGF1a promoter = assay: Luciferase reporter assay of the FGF1a promoter co-transfected with PPARδ; assay type: cell-based; settings: with ligand
Description: Increased vasculature is one of the hallmarks of oxidative myofibers, which facilitates introduction of immune cells and also supports increased number of satellite cells.

[1] = Solubility (kinetic, thermodynamic); assay type: physicochemical
[2] = system: C57BL6J mice, freeze burn injury to the TA muscle; assay: Acute pharmacological activation of PPARδ with oral GW501516, freeze burn injury to the TA muscle; assay type: in vivo
Method: A stainless steel 1 g weight (Mettler-Toledo) equilibrated to the temperature of dry ice was placed directly on the exposed TA for 10 seconds. Following the thermal injury, incision was closed using VetBond (3M). All injury procedures were performed on the left leg, and the right leg was used as control.
Sterile 1% w/v Evans Blue dye in PBS was intraperitoneally injected at 1% volume relative to the body mass of an animal. 7 hours after the injection, injured TA muscles were harvested and snap-frozen by isopentane quenching in liquid nitrogen. Frozen sections were cut in 10 μm thickness, fixed in ice-cold acetone, dipped in xylene and mounted with DPX. Proportion of the stained area over the total area was measured using ImageJ software.
50 mg/kg body weight of BrdU (Sigma) was injected intraperitoneally as solution of 10 mg/mL BrdU in saline. TA muscles were harvested at 7 days after injury and processed for paraffin sections as described above. BrdU incorporation was visualized using the BrdU Labeling and Detection Kit I (Roche) and BrdU+ nuclei were counted and represented as a proportion of total nuclei in a field.
Whole or partial tissues were homogenized by Polytron probe homogenizer in Trizol reagent (Invitrogen). Total RNA was extracted from the homogenates according to the manufacturer's protocol. 1 μg of DNase-treated total RNA was reverse transcribed using Superscript II Reverse Transcriptase (Invitrogen) according to the manufacturer's instructions. cDNAs were diluted 1/40 with ddH2O and used as templates in RT-QPCR reactions with SYBRGreenER qPCR SuperMix detection system (Invitrogen). Samples were prepared in technical triplicates and relative mRNA levels were calculated by using the standard curve methodology and normalized against GAPDH mRNA levels in the same samples.

[3] = assay type: in vitro ADME
[4] = Pharmacokinetics in male Wistar rats (i.v. and p.o.); assay type: in vivo
Method: In this example, the PK profile of several PPARδ agonists disclosed herein in male CD-1 mice or Wistar rats was determined. Similar methods can be used to analyze other compounds provided herein. […]
(§1) The concentration of the compound in plasma was determined, as illustrated in FIGS. 9A-9E.

[5] = Pharmacokinetics in male CD-1 mice (i.v. and p.o.); assay type: in vivo
Method: The oral bioavailability and serum half lives of PPARδ ligands were compared in mice. The pharmacokinetics of PPARδ ligands delivered orally (10 mg/kg p.o.) and intravenously (3 mg·kg i.v.) were determined by mass spectrometry.
In this example, the PK profile of several PPARδ agonists disclosed herein in male CD-1 mice or Wistar rats was determined. Similar methods can be used to analyze other compounds provided herein.
(quantity sufficient ie made up to a final volume of 100% with water). All compounds were separately administered to CD-1 mice at 3 mg/kg iv or 10 mg/kg po.
as §1

[6] = rat, iv, male Wistar rats, 3 mg/Kg i.v., plasma
[7] = rat, po, male Wistar rats, 10 mg/Kg p.o., plasma
[8] = male, mouse, iv, CD-1 mice, 3 mg/Kg i.v., plasma
[9] = male, mouse, po, CD-1 mice, 10 mg/Kg p.o., plasma

## Cc1cc(SCc2sc(-c3ccc(C(F)(F)F)cc3)nc2C)ccc1OCC(=O)O [GW501516]
FGF1a promoter
  FGF1a promoter luciferase reporter, PPRE-dependent: activation
[1]; kinetic from dmso stock
  solubility kinetic: 195 µM (≈ 88.4 µg/mL)
[1]; thermodynamic from solid
  solubility thermodynamic: 246 µM (≈ 112 µg/mL)
[2]; 5 mg/kg orally, 4 days prior to and 5 days after freeze burn injury, 5 days after injury (vehicle 7.6%)
  Evans Blue dye uptake, stained proportion of muscle cross sectional area (CSA): 4.9%
[2]; 12 hours after injury, with and without ligand
  initial inflammatory responses: similar
[2]; 3 days post injury, TA muscle
  TNFα and macrophage marker F4/80 expression by QPCR: significant reduction
[2]; 5 days after the injury, vs vehicle
  reduction in damaged muscle fibers: 34.7%
[2]; 9 day treatment
  Notch1 and Hes1 expression by QPCR: increases
[2]; 9 day treatment, 5 mg/kg orally
  PPARδ target genes (PDK4, CPT1b, catalase) in the TA muscle by QPCR: Up-regulation
[2]; 9 days or 4 weeks of ligand treatment
  number of quiescent satellite cells: not significantly affected
[2]; BrdU injection at 48 hours after the injury
  proliferative cell number (BrdU): marked increase
[3]
  % Parent remained at 15 min, MLM: 93/76%
  % Parent remained at 60 min, MLM: 93/76%
[4]; male Wistar rats, 3 mg/Kg i.v., plasma
  Kel: 0.09 h⁻¹
[4]; male Wistar rats, 10 mg/Kg p.o. vs 3 mg/Kg i.v.
  F: ~100%
[4]; male, Wistar, rat, plasma, iv, 3 mg/kg
  clearance: 5.1 mL/min/kg
[4]; male, Wistar, rat, plasma, iv, 3 mg/kg, male Wistar rats, 3 mg/Kg i.v., plasma, read-out: Vss
  Vd: 1.99 L/kg
[4]; male, Wistar, rat, plasma, iv, 3 mg/kg, male Wistar rats, 3 mg/Kg i.v., plasma, read-out: Vz
  Vd: 3.58 L/kg
[4]; male, Wistar, rat, plasma, iv, 3 mg/kg, read-out: Beta T1/2 (converted)
  half-life: 8.07 h
[4]; male, Wistar, rat, plasma, po, 10 mg/kg, read-out: T1/2 (converted)
  half-life: 6.21 h
[4]; [6]
  AUC(0-inf): 9960 ng·h/mL
  C0: 5280 ng/mL
  MRT: 4.3 h
[4]; [7]
  AUC(0-inf): 35100 ng·h/mL
  Cmax: 6920 ng/mL
  Tmax: 2 h
[5]; CD-1 mice, 3 mg/Kg i.v., plasma
  Kel: 0.11 h⁻¹
[5]; CD-1 mice, 10 mg/Kg p.o. vs 3 mg/Kg i.v.
  F: 82.1%
[5]; male, CD-1, mouse, plasma, iv, 3 mg/kg
  clearance: 4.42 mL/min/kg
[5]; male, CD-1, mouse, plasma, iv, 3 mg/kg, CD-1 mice, 3 mg/Kg i.v., plasma, read-out: Vss
  Vd: 1.71 L/kg
[5]; male, CD-1, mouse, plasma, iv, 3 mg/kg, CD-1 mice, 3 mg/Kg i.v., plasma, read-out: Vz
  Vd: 2.46 L/kg
[5]; male, CD-1, mouse, plasma, iv, 3 mg/kg, read-out: Beta T1/2 (converted)
  half-life: 6.44 h
[5]; male, CD-1, mouse, plasma, po, 10 mg/kg, read-out: T1/2 (converted)
  half-life: 5.98 h
[5]; [8]
  AUC(0-inf): 11300 ng·h/mL
  C0: 5560 ng/mL
  MRT: 4.96 h
[5]; [9]
  AUC(0-inf): 31000 ng·h/mL
  Cmax: 3290 ng/mL
  Tmax: 2 h
